Data as given in patent US4156016A, “Indole compounds and process for their preparation” (Hoffmann-La Roche Inc., priority 1977, dated 1979).
Where two headings read alike, the source gives them in different places.

What was measured:
serum PGF2α = assay: Inhibition of prostaglandin formation: serum PGF2α by radioimmunoassay (rats); type: in vivo, male rats; settings: for ED50: Rattus norvegicus, 1 h, rats
[1] = Toxicity (general statement)
[2] = Gastric ulcer induction (rats); parameters: species or system male Wistar rats; settings: rat, in vivo, po
Method: The test is a modification of that described by Brodie et al., Gastroenterology, 53, pages 604-610 (1967). Male Wistar rats (Royal Hart Laboratories) were deprived of food for 18 hours prior to testing. Tap water was permitted ad libitum. Test compounds were administered orally four hours to autopsy. The rats were sacrificed under ethyl ether anesthesia, opened along the ventral midline and the stomachs removed. The stomach was divided along the lesser curvature, everted, rinsed in saline, and examined for the presence of focal hemorrhage. Ulcers were rated on an all or none basis for incidence and, in addition, each stomach is graded for severity of ulcers formed. Ulcer scores: 0=none, 1=trace, 2=mild, 3=moderate, and 4=severe. The results of the ulcer scores obtained were subjected to statistical analysis by the student `t` test.

ADP induced aggregation = assay: Inhibition of ADP-induced platelet aggregation (second wave) in human platelet-rich plasma; type: cell-based; settings: for inhibition at 2.5 µM / inhibition at 5 µM / inhibition at 10 µM / inhibition at 20 µM / inhibition at 50 µM: Homo sapiens, Platelet, read-out: Percent Inhibition
Method: Venous blood was collected from human volunteers in siliconized 20 ml. […] Platelet rich plasma (PRP) was separated from the red blood cells by centrifugation at 180×g for 15 minutes at room temperature. Platelet poor plasma (PPP) was prepared by centrifuging PRP at 1000×g for 2 minutes.
Techniques established by Born et al., J. Physiol. […] PRP (1 ml.) was added to a siliconized cuvette containing a siliconized stirring bar and placed in a densitometer maintained at 37° C. and stirred at 1000 RPM. Various concentrations of test compounds were added in 50 μl of saline and incubated with PRP for 5 minutes. Aggregation was initiated by the addition of sufficient concentrations of ADP (Sigma Chemical Co.), epinephrine HCl (Parke, Davis & Co., Detroit, Michigan), or human mammary gland collagen (obtained from Roosevelt Hospital, N.Y.) to give about 60% of maximum aggregation response. The light transmission through PPP was used to determine maximum response. The percent inhibition of aggregation caused by the drug was calculated from the strip chart recordings at the point of maximum collagen response.

[3] = tested on: Collagen-Induced Platelet Aggregation; assay: Effect of compounds in whole blood: collagen-induced platelet aggregation after incubation in whole blood; type: cell-based, human; settings: for Δ light transmission: mean of duplicate determinations; for inhibition at 1 µM / inhibition at 5 µM / inhibition at 10 µM / inhibition at 25 µM / inhibition at 50 µM / inhibition at 100 µM: read-out: percent inhibition
Method: Aliquots of citrated human blood (10 ml.) were exposed to different concentrations of the "nitrile" by mechanically shaking at room temperature for 5 minutes.

[4] = Ulcerogenicity (general statement)

Question: For `N#Cc1[nH]c2ccc(C(O)(C(F)(F)F)C(F)(F)F)cc2c1-c1ccccc1` [nitrile, 3-Phenyl-5-[2,2,2-trifluoro-1-hydroxy-1-(trifluoromethyl)ethyl]indole-2-carbonitrile], which “serum PGF2α” value (serum PGF2α; 1 mg/kg i.p., ± SE) is on record?
Answer: 27 ± 2.9 ng/mL

Question: And the “serum PGF2α” value (serum PGF2α; 1 mg/kg p.o., ± SE)?
Answer: 28 ± 4.6 ng/mL

Question: And the “serum PGF2α” value (serum PGF2α; 3 mg/kg i.p., ± SE, p <0.05)?
Answer: 18 ± 1.5 ng/mL

Question: What about the “serum PGF2α” value (serum PGF2α; 3 mg/kg p.o., ± SE) of the same compound?
Answer: 19 ± 4.2 ng/mL

Question: And the “serum PGF2α” value (serum PGF2α; 10 mg/kg i.p., ± SE, p <0.01)?
Answer: 18 ± 2.9 ng/mL

Question: What about the “serum PGF2α” value (serum PGF2α; 10 mg/kg p.o., ± SE, p <0.001) of the same compound?
Answer: 12 ± 2.4 ng/mL

Question: What about the “serum PGF2α” value (serum PGF2α; 30 mg/kg i.p., ± SE, p <0.001) of the same compound?
Answer: 2 ± 1.6 ng/mL

Question: What about the “serum PGF2α” value (serum PGF2α; 30 mg/kg p.o.) of the same compound?
Answer: 0 ng/mL

Question: What about the “serum PGF2α” value (serum PGF2α; 100 mg/kg i.p.) of the same compound?
Answer: 0 ng/mL

Question: What about the “serum PGF2α” value (serum PGF2α; 100 mg/kg p.o.) of the same compound?
Answer: 0 ng/mL

Question: And the ED50 (serum PGF2α; ip)?
Answer: 15 mg/kg

Question: And the ED50 (serum PGF2α; po)?
Answer: 10 mg/kg

Question: What about the “toxicity (in words)” value [1] of the same compound?
Answer: low in toxicity

Question: What about the TD50 at 4 h [2] of the same compound?
Answer: > 250 mg/kg

Question: And the Δ light transmission (ADP induced aggregation; 2.5 μM, Expt. I)?
Answer: 60 units

Question: And the Δ light transmission (ADP induced aggregation; 2.5 μM, Expt. II)?
Answer: 54 units

Question: And the Δ light transmission (ADP induced aggregation; 5 μM, Expt. I)?
Answer: 50 units

Question: And the Δ light transmission (ADP induced aggregation; 5 μM, Expt. II)?
Answer: 44 units

Question: And the Δ light transmission (ADP induced aggregation; 10 μM, Expt. I)?
Answer: 11 units

Question: And the Δ light transmission (ADP induced aggregation; 10 μM, Expt. II)?
Answer: 14 units

Question: What about the Δ light transmission (ADP induced aggregation; 20 μM, Expt. I) of the same compound?
Answer: 0 units

Question: What about the Δ light transmission (ADP induced aggregation; 20 μM, Expt. II) of the same compound?
Answer: 0 units

Question: What about the Δ light transmission (ADP induced aggregation; 50 μM, Expt. I) of the same compound?
Answer: 0 units

Question: And the Δ light transmission (ADP induced aggregation; 50 μM, Expt. II)?
Answer: 0 units

Question: What about the inhibition at 2.5 µM (ADP induced aggregation; 2.5 μM, Expt. I) of the same compound?
Answer: 0%

Question: What about the inhibition at 2.5 µM (ADP induced aggregation; 2.5 μM, Expt. II) of the same compound?
Answer: 1.8%

Question: And the inhibition at 5 µM (ADP induced aggregation; 5 μM, Expt. I)?
Answer: 16.7%

Question: What about the inhibition at 5 µM (ADP induced aggregation; 5 μM, Expt. II) of the same compound?
Answer: 20%

Question: What about the inhibition at 10 µM (ADP induced aggregation; 10 μM, Expt. I) of the same compound?
Answer: 18.6%

Question: And the inhibition at 10 µM (ADP induced aggregation; 10 μM, Expt. II)?
Answer: 74.5%

Question: And the inhibition at 20 µM (ADP induced aggregation; 20 μM, Expt. I)?
Answer: 100%

Question: And the inhibition at 20 µM (ADP induced aggregation; 20 μM, Expt. II)?
Answer: 100%

Question: And the inhibition at 50 µM (ADP induced aggregation; 50 μM, Expt. I)?
Answer: 100%

Question: And the inhibition at 50 µM (ADP induced aggregation; 50 μM, Expt. II)?
Answer: 100%

Question: And the IC50 (ADP induced aggregation; incubation in human citrated platelet-rich plasma)?
Answer: 7 µM

Question: And the Δ light transmission ([3]; 1 μM, Expt. I)?
Answer: 18 units

Question: What about the Δ light transmission ([3]; 1 μM, Expt. II) of the same compound?
Answer: 19 units

Question: What about the Δ light transmission ([3]; 1 μM, Expt. III) of the same compound?
Answer: 27 units

Question: And the Δ light transmission ([3]; 5 μM, Expt. I)?
Answer: 14 units

Question: What about the Δ light transmission ([3]; 5 μM, Expt. II) of the same compound?
Answer: 15 units

Question: What about the Δ light transmission ([3]; 5 μM, Expt. III) of the same compound?
Answer: 20 units

Question: And the Δ light transmission ([3]; 10 μM, Expt. I)?
Answer: 13 units

Question: What about the Δ light transmission ([3]; 10 μM, Expt. II) of the same compound?
Answer: 13 units

Question: And the Δ light transmission ([3]; 10 μM, Expt. III)?
Answer: 17 units

Question: What about the Δ light transmission ([3]; 25 μM, Expt. I) of the same compound?
Answer: 9 units

Question: And the Δ light transmission ([3]; 25 μM, Expt. II)?
Answer: 10 units

Question: What about the Δ light transmission ([3]; 25 μM, Expt. III) of the same compound?
Answer: 13 units

Question: And the Δ light transmission ([3]; 50 μM, Expt. I)?
Answer: 8 units

Question: What about the Δ light transmission ([3]; 50 μM, Expt. II) of the same compound?
Answer: 9 units

Question: What about the Δ light transmission ([3]; 50 μM, Expt. III) of the same compound?
Answer: 10 units

Question: What about the Δ light transmission ([3]; 100 μM, Expt. I) of the same compound?
Answer: 4 units

Question: And the Δ light transmission ([3]; 100 μM, Expt. II)?
Answer: 4 units

Question: What about the Δ light transmission ([3]; 100 μM, Expt. III) of the same compound?
Answer: 6 units

Question: And the inhibition at 1 µM ([3]; Homo sapiens, Platelet, 1 μM, Expt. I)?
Answer: 10%

Question: And the inhibition at 1 µM ([3]; Homo sapiens, Platelet, 1 μM, Expt. II)?
Answer: 9.5%

Question: What about the inhibition at 1 µM ([3]; Homo sapiens, Platelet, 1 μM, Expt. III) of the same compound?
Answer: 10%

Question: And the inhibition at 5 µM ([3]; Homo sapiens, Platelet, 5 μM, Expt. I)?
Answer: 30%

Question: What about the inhibition at 5 µM ([3]; Homo sapiens, Platelet, 5 μM, Expt. II) of the same compound?
Answer: 29%

Question: What about the inhibition at 5 µM ([3]; Homo sapiens, Platelet, 5 μM, Expt. III) of the same compound?
Answer: 33%

Question: And the inhibition at 10 µM ([3]; Homo sapiens, Platelet, 10 μM, Expt. I)?
Answer: 35%

Question: And the inhibition at 10 µM ([3]; Homo sapiens, Platelet, 10 μM, Expt. II)?
Answer: 38%

Question: What about the inhibition at 10 µM ([3]; Homo sapiens, Platelet, 10 μM, Expt. III) of the same compound?
Answer: 43%

Question: What about the inhibition at 25 µM ([3]; Homo sapiens, Platelet, 25 μM, Expt. I) of the same compound?
Answer: 55%

Question: What about the inhibition at 25 µM ([3]; Homo sapiens, Platelet, 25 μM, Expt. II) of the same compound?
Answer: 52%

Question: What about the inhibition at 25 µM ([3]; Homo sapiens, Platelet, 25 μM, Expt. III) of the same compound?
Answer: 57%

Question: And the inhibition at 50 µM ([3]; Homo sapiens, Platelet, 50 μM, Expt. I)?
Answer: 60%

Question: And the inhibition at 50 µM ([3]; Homo sapiens, Platelet, 50 μM, Expt. II)?
Answer: 57%

Question: What about the inhibition at 50 µM ([3]; Homo sapiens, Platelet, 50 μM, Expt. III) of the same compound?
Answer: 67%

Question: What about the inhibition at 100 µM ([3]; Homo sapiens, Platelet, 100 μM, Expt. I) of the same compound?
Answer: 80%

Question: And the inhibition at 100 µM ([3]; Homo sapiens, Platelet, 100 μM, Expt. II)?
Answer: 81%

Question: And the inhibition at 100 µM ([3]; Homo sapiens, Platelet, 100 μM, Expt. III)?
Answer: 80%

Question: And the IC50 ([3]; Homo sapiens, Platelet, incubation in whole blood)?
Answer: 25 µM

Question: And the “ulcerogenicity (in words)” value [4]?
Answer: non-ulcerogenic
